# Reference: patent US20240398777A1, “METHOD OF TREATING SYMPTOMS OF PRADER-WILLI SYNDROME” (HARMONY BIOSCIENCES, LLC, priority 2023, published 2024)
# Key:
# Assay type in all cases: in vivo, human
# [1] = tested on: EDS severity in subjects with PWS; assay: Phase 2 study: Caregiver Global Impression of Severity (CaGI-S) for EDS; conditions: Week 11
# Experimental: (§1) A study was carried out to evaluate the efficacy and safety of pitolisant for the treatment of EDS in subjects with PWS. This was a phase 2, randomized, placebo-controlled, proof-of-concept study. Children (aged 6 to <12 years), adolescents (aged 12 to <18 years), and adults (aged 18-65 years) with a confirmed diagnosis of PWS were randomly assigned to receive low-dose pitolisant (8.9 mg in children, 13.35 mg in adolescents, and 17.8 mg in adults) or high dose pitolisant (17.8 mg in children, 26.7 mg in adolescents, and 35.6 mg in adults), or placebo (see FIG. 1). All doses are expressed in terms of pitolisant freebase.
# (§2) The 11-week double-blind treatment period consisted of a 3-week titration phase and an 8-week stable-dose phase.
# (§3) Secondary/exploratory endpoints included change from baseline in Caregiver Global Impression of Severity (CaGI-S) for EDS, behavioral disturbance (Aberrant Behavior Checklist-2 [ABC-2]), and hyperphagia (Hyperphagia Questionnaire for Clinical Trials [HQ-CT] in conjunction with the Food Safe Zone Questionnaire [FSZQ]). The primary time frame of interest was from baseline to Week 11.
# [2] = tested on: excessive daytime sleepiness (EDS) in subjects with PWS; assay: Phase 2 randomized placebo-controlled study: ESS-CHAD (parent/caregiver version)
# Experimental: as §1, §2
# The primary efficacy endpoint was the change from baseline to Week 11 in total score for the parent/caregiver version of the Epworth Sleepiness Scale for Children and Adolescents (ESS-CHAD), which is a validated measurement for sleep propensity. (See Janssen K C, et al. Sleep Med. 2017; 33:30-35; see also Patel V P, et al. J. Clin. Sleep Med. 2022; 18 (2): 485-496). A separate analysis was treatment response defined as ESS-CHAD score reduction of ≥3 points from baseline or Week 11 score of ≤10.
# [3] = tested on: hyperphagia in subjects with PWS; assay: Phase 2 study: Hyperphagia Questionnaire for Clinical Trials (HQ-CT); conditions: Week 11; children (6 to <12 years) and adults (18 to 65 years)
# Experimental: as §1, §2, §3
# patients with PWS = assay: Phase 2 study: treatment-emergent adverse events; conditions: for Treatment-related TEAEs: possibly, probably, or definitely related to study drug
# Experimental: as §1, §2
# [4] = tested on: behavioral problems in subjects with PWS; assay: Phase 2 study: Aberrant Behavior Checklist-2 (ABC-2)
# Experimental: as §1, §2, §3
# The ABC-2 is a widely used and validated questionnaire that can assess changes in behavioral problems, and is particularly suitable for assessing behavioral changes in subjects with intellectual and developmental disabilities. The ABC-2 questions are subdivided into five domains (irritability, social withdrawal, hyperactivity/noncompliance, inappropriate speech, and stereotypic behavior). Generally, a reduction of 2 or more points in a domain of the ABC-2 is considered clinically meaningful. ABC-2 was used in this trial to determine if pitolisant improved or reduced behavioral problems experienced by subjects living with PWS.
# [5] = pitolisant-treated patients (doses pooled)
# [6] = adolescents (12 to <18 years), higher-dose, n = 6
# [7] = adolescents (12 to <18 years), lower-dose, n = 4
# [8] = adults (18 to 65 years), higher-dose, n = 5
# [9] = adults (18 to 65 years), lower-dose, n = 3
# [10] = all patient groups, high dose pitolisant, n = 22
# [11] = all patient groups, low dose pitolisant, n = 18
smiles,measurement,setting,value
Clc1ccc(CCCOCCCN2CCCCC2)cc1 [pitolisant],reduction in CaGI-S score versus placebo,[1]; children (6 to <12 years) and adults,greater for pitolisant compared with placebo
same,CaGI-S mean (SD) change,[1]; higher-dose pitolisant group,−1.1 (1.1)
same,CaGI-S mean (SD) change,[1]; lower-dose pitolisant group,−1.0 (1.2)
same,ESS-CHAD (Parent/Caregiver Version) mean change from baseline at Week 11,"[2]; 6 to <12 years, high-dose pitolisant (17.8 mg), n = 11",−5.5 points
same,ESS-CHAD (Parent/Caregiver Version) mean change from baseline at Week 11,"[2]; 6 to <12 years, low-dose pitolisant (8.9 mg), n = 12",−3.7 points
same,ESS-CHAD (Parent/Caregiver Version) mean change from baseline at Week 11,"[2]; 12 to <18 years, high-dose pitolisant (26.7 mg), n = 6",−4.2 points
same,ESS-CHAD (Parent/Caregiver Version) mean change from baseline at Week 11,"[2]; 12 to <18 years, low-dose pitolisant (13.35 mg), n = 4",−4.5 points
same,ESS-CHAD (Parent/Caregiver Version) mean change from baseline at Week 11,"[2]; 18 to 65 years, high-dose pitolisant (35.6 mg), n = 5",−4.4 points
same,ESS-CHAD (Parent/Caregiver Version) mean change from baseline at Week 11,"[2]; 18 to 65 years, low-dose pitolisant (17.8 mg), n = 3",−5.0 points
same,mean improvement from baseline in ESS-CHAD score versus placebo,"[2]; overall patient population, end of treatment, both dose groups",greater for both pitolisant dose groups compared with the placebo group
same,ESS-CHAD response rate (score reduction of ≥3 points from baseline or score of ≤10 at Week 11) versus placebo,"[2]; study completers, Week 11, driven primarily by high-dose group",higher for pitolisant versus placebo
same,reduction in HQ-CT score versus placebo,[3],greater for pitolisant compared with placebo
same,Anxiety,"patients with PWS; high-dose pitolisant, n = 22",1 (4.5) n (%)
same,Any TEAE,"patients with PWS; high-dose pitolisant, n = 22",11 (50.0) n (%)
same,Irritability,"patients with PWS; high-dose pitolisant, n = 22",2 (9.1) n (%)
same,Most common TEAEs,"patients with PWS; high-dose pitolisant, n = 22",1 (4.5) n (%)
same,Serious TEAEs,"patients with PWS; high-dose pitolisant, n = 22",0 n (%)
same,Severe TEAEs,"patients with PWS; high-dose pitolisant, n = 22",0 n (%)
same,Treatment-related TEAEs,"patients with PWS; high-dose pitolisant, n = 22",4 (18.2) n (%)
same,Anxiety,"patients with PWS; low-dose pitolisant, n = 20",4 (20.0) n (%)
same,Any TEAE,"patients with PWS; low-dose pitolisant, n = 20",13 (65.0) n (%)
same,Irritability,"patients with PWS; low-dose pitolisant, n = 20",3 (15.0) n (%)
same,Most common TEAEs,"patients with PWS; low-dose pitolisant, n = 20",4 (20.0) n (%)
same,Serious TEAEs,"patients with PWS; low-dose pitolisant, n = 20",0 n (%)
same,Severe TEAEs,"patients with PWS; low-dose pitolisant, n = 20",0 n (%)
same,Treatment-related TEAEs,"patients with PWS; low-dose pitolisant, n = 20",7 (35.0) n (%)
same,safety and tolerability versus known safety profile,patients with PWS; patients with PWS,no new safety signals were observed
same,"adverse event anxiety, incidence",patients with PWS; [5],13.0%
same,"adverse event irritability, incidence",patients with PWS; [5],17.4%
same,mean reduction on all ABC-2 domains versus placebo,"[4]; Week 11, children (6 to <12 years), higher-dose pitolisant",greater for higher-dose pitolisant compared with placebo
same,ABC-2 Hyperactivity/noncompliance mean change from baseline to Week 11,[4]; [6],−3.8
same,ABC-2 Inappropriate speech mean change from baseline to Week 11,[4]; [6],−1.7
same,ABC-2 Irritability mean change from baseline to Week 11,[4]; [6],−5.0
same,ABC-2 Social withdrawal mean change from baseline to Week 11,[4]; [6],−3.7
same,ABC-2 Stereotypic behavior mean change from baseline to Week 11,[4]; [6],−0.5
same,ABC-2 Hyperactivity/noncompliance mean change from baseline to Week 11,[4]; [7],0.0
same,ABC-2 Inappropriate speech mean change from baseline to Week 11,[4]; [7],−0.8
same,ABC-2 Irritability mean change from baseline to Week 11,[4]; [7],−4.8
same,ABC-2 Social withdrawal mean change from baseline to Week 11,[4]; [7],−3.3
same,ABC-2 Stereotypic behavior mean change from baseline to Week 11,[4]; [7],0.3
same,ABC-2 Hyperactivity/noncompliance mean change from baseline to Week 11,[4]; [8],−5.4
same,ABC-2 Inappropriate speech mean change from baseline to Week 11,[4]; [8],−2.2
same,ABC-2 Irritability mean change from baseline to Week 11,[4]; [8],−2.8
same,ABC-2 Social withdrawal mean change from baseline to Week 11,[4]; [8],−2.4
same,ABC-2 Stereotypic behavior mean change from baseline to Week 11,[4]; [8],−2.6
same,ABC-2 Hyperactivity/noncompliance mean change from baseline to Week 11,[4]; [9],1.0
same,ABC-2 Inappropriate speech mean change from baseline to Week 11,[4]; [9],0.7
same,ABC-2 Irritability mean change from baseline to Week 11,[4]; [9],−3.0
same,ABC-2 Social withdrawal mean change from baseline to Week 11,[4]; [9],−1.0
same,ABC-2 Stereotypic behavior mean change from baseline to Week 11,[4]; [9],−0.3
same,ABC-2 Hyperactivity/noncompliance mean change from baseline to Week 11,[4]; [10],−4.6
same,ABC-2 Inappropriate speech mean change from baseline to Week 11,[4]; [10],−2.0
same,ABC-2 Irritability mean change from baseline to Week 11,[4]; [10],−4.8
same,ABC-2 Social withdrawal mean change from baseline to Week 11,[4]; [10],−4.0
same,ABC-2 Stereotypic behavior mean change from baseline to Week 11,[4]; [10],−1.2
same,ABC-2 Hyperactivity/noncompliance mean change from baseline to Week 11,[4]; [11],−0.4
same,ABC-2 Inappropriate speech mean change from baseline to Week 11,[4]; [11],−0.3
same,ABC-2 Irritability mean change from baseline to Week 11,[4]; [11],−3.4
same,ABC-2 Social withdrawal mean change from baseline to Week 11,[4]; [11],−1.9
same,ABC-2 Stereotypic behavior mean change from baseline to Week 11,[4]; [11],−0.1
same,reductions in three ABC-2 domains including irritability and hyperactivity/noncompliance,[4]; high dose group,more than 4 points
